Assay [1] addresses T1, EGFR(L858R/T790M) (Homo sapiens, UniProt P00533, L858R/T790M). Briefly: EGFR biochemical assay (HTRF), IC50 determination. Set-up: purchased from Carna (GST-a.a. 669-1210); purchased Carna. To be noted: 10 μM ATP. The procedure: All EGFR biochemical assays were carried out by HTRF method. The EGFR(L858RT790M) enzyme were purchased from Carna (GST-a.a. 669-1210). The substrate peptide Biotin-TK-peptide was purchased from Cis-Bio. The reaction mixtures contained 1 μM peptide substrate, 10 μM ATP, and 0.036 nM EGFR(L858RT790M) in the reaction buffer (50 mM HEPES pH 7.1, 10 mM MgCl2, 0.01% BSA, 1 mM TCEP and 0.1 mM Na3VO4) at a final volume of 10 μL. All reactions were carried out at room temperature in white ProxiPlate™ 384-well Plus plates (PerkinElmer) and were quenched with 5 μL of 0.2 M EDTA at 60 min Five μL of the detection reagents (2.5 ng PT66K and 0.05 μg SAXL per well) were added, the plates were incubated at room temperature for 1 h and then read in EnVision reader. […] For no-preincubation condition, the compounds were added to the assay solution containing ATP and peptide, and the reaction was initiated by addition of enzyme. For pre-incubation conditions, the compounds were added to the assay solution containing enzyme and peptide, and pre-incubated at room temperature for desired period of time, then the reaction was initiated by addition of ATP.
Target sequence in this assay (P00533 669-1210 T790M/L858R): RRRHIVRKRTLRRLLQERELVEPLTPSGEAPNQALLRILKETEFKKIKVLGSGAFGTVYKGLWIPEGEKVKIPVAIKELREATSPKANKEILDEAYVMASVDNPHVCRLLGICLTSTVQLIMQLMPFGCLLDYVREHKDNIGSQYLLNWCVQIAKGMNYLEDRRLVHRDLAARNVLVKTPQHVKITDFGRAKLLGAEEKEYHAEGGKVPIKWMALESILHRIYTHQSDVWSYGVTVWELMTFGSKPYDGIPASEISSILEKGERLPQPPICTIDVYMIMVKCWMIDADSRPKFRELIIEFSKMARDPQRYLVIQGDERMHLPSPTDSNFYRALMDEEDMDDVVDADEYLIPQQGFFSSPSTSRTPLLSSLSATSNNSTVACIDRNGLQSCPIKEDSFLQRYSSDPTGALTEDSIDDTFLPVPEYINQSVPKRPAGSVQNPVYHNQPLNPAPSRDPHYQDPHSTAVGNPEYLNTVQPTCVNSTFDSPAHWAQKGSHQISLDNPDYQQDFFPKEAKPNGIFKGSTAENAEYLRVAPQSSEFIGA

The target of assay [2] is T1, EGFR(L858R/T790M). The assay can be described thus: EGFR target modulation in engineered NIH3T3 cell lines (phospho-EGFR AlphaLISA). The assay is classed as cell-based. The arrangement: host or cells: NIH3T3. To be noted: NIH3T3 cells expressing human EGFR L858R/T790M; 3 hours compound. As to the method:
(§1) EGFR Target Modulation in Engineered NIH3T3 Cell Lines
(§2) NIH3T3 cell lines expressing human EGFR (WT, L858R, and L858RT790M) (obtained from Matthew Meyerson's Lab at DFCI) were maintained in 10% FBS/DMEM supplemented with 100 μg/ml Penicillin/Streptomycin (Hyclone #SV30010) and 2 μg/ml Puromycin. The cells were harvested with 0.05% Trypsin/EDTA (Hyclone #SH30236.01), re-suspended in 5% FBS/DMEM Pen/Strep without Puromycin and plated at 9,000 cells per well in 50 μl of media in a 384-well black plate with clear bottoms (Greiner #789068G). The cells were allowed to incubate overnight in a 37° C., 5% CO2 humidified tissue culture incubator. A 12-point test compound curve was prepared by serial diluting a 10 μM stock 1:3 in DMSO in a 384-well compound plate (Greiner #789201L). The serial diluted compounds were transferred to the plate containing cells by using a 50 nl Pin Head device (Perkin Elmer) and the cells were placed back in the incubator for 3 hours. Only the EGFR WT-expressing cells were induced with 50 ng/ml EGF (Preprotech #AF-100-15) for 5 minutes before lysis. The media was removed and cells were lysed in 25 μl of Lysis buffer containing protease and phosphatase inhibitors (1% Triton X-100, 20 mM Tris, pH 7.5, 1 mM EDTA, 1 mM EGTA, 150 mM NaCl, 1× complete cocktail inhibitor (Roche #11 697 498 001), 1× Phosphatase Inhibitor Cocktail Set II and Set III (Sigma #P5726 and #P0044)). The plates were shaken at 4° C. for 5 minutes with foil top at maximum speed. An aliquot of 5 μl from each well was transferred to ProxiPlate™ 384-well Plus plates (PE #6008289). The plates were sealed with a foil top and frozen at −80° C. and thawed when needed.
(§3) The frozen aliquots were thawed and briefly centrifuged. All antibodies and beads were diluted in 1× AlphaLISA HiBlock Buffer (PE #AL004C). Biotinylated anti-phospho-EGFR (Y1068) (Cell Signaling #4031) was incubated with the lysate for 1 hour at room temperature at 1 nM final concentration. Goat anti-total EGFR (R&D Systems #AF231) was added and allowed to equilibrate for 1 hour at room temperature at 1 nM final concentration. Then, 10 μl of mixed beads (AlphaScreen Streptavidin Donor Beads (PE #6760002S) and AlphaLISA anti-goat IgG Acceptor Beads (PE #AL107C)) was equilibrated for 1.5 hours before reading on EnVision plate reader using the built-in settings for AlphaScreen.
(§4) Cells untreated (L858R and L858RT790M) or EGF-induced (WT) were set to 100% maximum response. For a negative control, 10 μM HKI-272 was used to normalize data to 0% of maximum response. With these parameters, the IC50's for each compound in each cell line was calculated using non-linear curve fitting analysis.
Target sequence in this assay (P00533 25-1210 T790M/L858R): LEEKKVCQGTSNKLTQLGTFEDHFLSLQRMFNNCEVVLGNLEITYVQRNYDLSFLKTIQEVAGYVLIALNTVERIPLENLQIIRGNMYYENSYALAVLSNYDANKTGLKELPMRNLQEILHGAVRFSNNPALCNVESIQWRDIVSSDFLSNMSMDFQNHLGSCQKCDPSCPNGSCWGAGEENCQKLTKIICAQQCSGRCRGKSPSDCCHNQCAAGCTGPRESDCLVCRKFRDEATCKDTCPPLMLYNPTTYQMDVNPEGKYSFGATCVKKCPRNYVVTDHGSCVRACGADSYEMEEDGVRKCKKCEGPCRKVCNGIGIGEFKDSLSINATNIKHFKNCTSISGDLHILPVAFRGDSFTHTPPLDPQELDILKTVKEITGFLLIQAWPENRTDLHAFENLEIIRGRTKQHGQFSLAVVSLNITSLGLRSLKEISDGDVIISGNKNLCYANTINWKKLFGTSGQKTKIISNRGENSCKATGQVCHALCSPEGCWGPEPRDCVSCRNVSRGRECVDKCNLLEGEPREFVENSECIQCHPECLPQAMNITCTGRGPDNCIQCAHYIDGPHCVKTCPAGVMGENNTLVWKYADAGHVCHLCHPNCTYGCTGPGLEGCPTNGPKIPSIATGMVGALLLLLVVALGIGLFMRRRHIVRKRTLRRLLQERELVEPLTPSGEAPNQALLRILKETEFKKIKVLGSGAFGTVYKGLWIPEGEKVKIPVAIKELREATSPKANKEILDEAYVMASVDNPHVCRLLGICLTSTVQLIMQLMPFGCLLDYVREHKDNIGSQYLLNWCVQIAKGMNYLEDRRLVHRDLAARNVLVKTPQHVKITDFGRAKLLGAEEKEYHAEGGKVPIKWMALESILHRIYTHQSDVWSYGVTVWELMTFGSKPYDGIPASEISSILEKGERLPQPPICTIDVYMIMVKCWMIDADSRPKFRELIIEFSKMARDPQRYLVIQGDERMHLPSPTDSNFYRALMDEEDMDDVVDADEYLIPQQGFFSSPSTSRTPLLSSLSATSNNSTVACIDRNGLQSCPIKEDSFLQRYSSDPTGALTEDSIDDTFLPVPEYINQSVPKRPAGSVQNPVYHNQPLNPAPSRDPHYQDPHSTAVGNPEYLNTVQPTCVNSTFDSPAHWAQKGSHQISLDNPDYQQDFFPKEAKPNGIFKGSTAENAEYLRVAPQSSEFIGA
Background: In Alpha technology, singlet oxygen from a donor bead excites a nearby acceptor bead.

In the next assay the target is T2, EGFR (WT) (Homo sapiens, UniProt P00533).
T2 construct: host or cells: NIH3T3
The assay is described as above. To be noted: NIH3T3 cells expressing human EGFR WT; 3 hours compound; induced with 50 ng/ml EGF. The assay is classed as cell-based. The procedure:
as §1, §2, §3, §4

The target of the next assay is T3, EGFR (L858R) (Homo sapiens, UniProt P00533, L858R).
T3 construct: host or cells: NIH3T3
Described as above. To be noted: NIH3T3 cells expressing human EGFR L858R; 3 hours compound. Type of assay: cell-based. The procedure: as §1, §2, §3, §4

[3] abbreviates: EGFR (L858R/T790M) IC50 (μM) 90 min pre-incubation, 90 min pre-incubation.
Setting [4] is: no pre-incubation, read-out: EGFR (L858R/T790M) IC50 (μM) No pre-incubation.

T3 sequence (P00533 25-1210 L858R): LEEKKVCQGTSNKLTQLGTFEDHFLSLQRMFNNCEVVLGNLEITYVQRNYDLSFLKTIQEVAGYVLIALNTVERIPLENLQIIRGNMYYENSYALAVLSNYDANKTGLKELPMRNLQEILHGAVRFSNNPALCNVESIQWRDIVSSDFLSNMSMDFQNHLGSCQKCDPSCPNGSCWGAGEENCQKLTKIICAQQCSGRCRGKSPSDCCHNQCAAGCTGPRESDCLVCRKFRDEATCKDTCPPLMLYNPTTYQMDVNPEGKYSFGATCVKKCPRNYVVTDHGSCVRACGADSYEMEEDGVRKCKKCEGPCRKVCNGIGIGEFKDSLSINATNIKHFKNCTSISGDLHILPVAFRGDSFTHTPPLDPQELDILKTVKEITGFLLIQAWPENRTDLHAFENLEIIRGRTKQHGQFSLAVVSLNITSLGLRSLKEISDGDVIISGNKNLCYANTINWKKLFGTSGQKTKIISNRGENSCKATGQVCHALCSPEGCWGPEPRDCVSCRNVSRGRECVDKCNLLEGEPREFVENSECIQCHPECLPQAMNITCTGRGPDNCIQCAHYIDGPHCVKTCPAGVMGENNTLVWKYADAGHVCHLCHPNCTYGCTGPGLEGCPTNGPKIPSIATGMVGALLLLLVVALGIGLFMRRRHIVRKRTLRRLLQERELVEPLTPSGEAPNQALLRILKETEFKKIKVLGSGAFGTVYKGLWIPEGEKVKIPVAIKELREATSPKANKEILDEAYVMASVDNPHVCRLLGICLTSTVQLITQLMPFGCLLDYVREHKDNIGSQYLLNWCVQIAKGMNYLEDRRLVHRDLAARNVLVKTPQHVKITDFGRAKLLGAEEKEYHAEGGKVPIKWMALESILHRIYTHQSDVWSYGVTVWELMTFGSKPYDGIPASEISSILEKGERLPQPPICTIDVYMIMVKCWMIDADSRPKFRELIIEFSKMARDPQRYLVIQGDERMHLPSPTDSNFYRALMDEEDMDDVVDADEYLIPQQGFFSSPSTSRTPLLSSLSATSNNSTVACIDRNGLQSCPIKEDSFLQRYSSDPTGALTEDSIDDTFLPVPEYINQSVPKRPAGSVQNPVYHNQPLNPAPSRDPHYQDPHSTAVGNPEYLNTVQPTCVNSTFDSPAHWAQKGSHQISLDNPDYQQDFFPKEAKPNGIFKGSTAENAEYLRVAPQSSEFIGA
T2 sequence (P00533 25-1210): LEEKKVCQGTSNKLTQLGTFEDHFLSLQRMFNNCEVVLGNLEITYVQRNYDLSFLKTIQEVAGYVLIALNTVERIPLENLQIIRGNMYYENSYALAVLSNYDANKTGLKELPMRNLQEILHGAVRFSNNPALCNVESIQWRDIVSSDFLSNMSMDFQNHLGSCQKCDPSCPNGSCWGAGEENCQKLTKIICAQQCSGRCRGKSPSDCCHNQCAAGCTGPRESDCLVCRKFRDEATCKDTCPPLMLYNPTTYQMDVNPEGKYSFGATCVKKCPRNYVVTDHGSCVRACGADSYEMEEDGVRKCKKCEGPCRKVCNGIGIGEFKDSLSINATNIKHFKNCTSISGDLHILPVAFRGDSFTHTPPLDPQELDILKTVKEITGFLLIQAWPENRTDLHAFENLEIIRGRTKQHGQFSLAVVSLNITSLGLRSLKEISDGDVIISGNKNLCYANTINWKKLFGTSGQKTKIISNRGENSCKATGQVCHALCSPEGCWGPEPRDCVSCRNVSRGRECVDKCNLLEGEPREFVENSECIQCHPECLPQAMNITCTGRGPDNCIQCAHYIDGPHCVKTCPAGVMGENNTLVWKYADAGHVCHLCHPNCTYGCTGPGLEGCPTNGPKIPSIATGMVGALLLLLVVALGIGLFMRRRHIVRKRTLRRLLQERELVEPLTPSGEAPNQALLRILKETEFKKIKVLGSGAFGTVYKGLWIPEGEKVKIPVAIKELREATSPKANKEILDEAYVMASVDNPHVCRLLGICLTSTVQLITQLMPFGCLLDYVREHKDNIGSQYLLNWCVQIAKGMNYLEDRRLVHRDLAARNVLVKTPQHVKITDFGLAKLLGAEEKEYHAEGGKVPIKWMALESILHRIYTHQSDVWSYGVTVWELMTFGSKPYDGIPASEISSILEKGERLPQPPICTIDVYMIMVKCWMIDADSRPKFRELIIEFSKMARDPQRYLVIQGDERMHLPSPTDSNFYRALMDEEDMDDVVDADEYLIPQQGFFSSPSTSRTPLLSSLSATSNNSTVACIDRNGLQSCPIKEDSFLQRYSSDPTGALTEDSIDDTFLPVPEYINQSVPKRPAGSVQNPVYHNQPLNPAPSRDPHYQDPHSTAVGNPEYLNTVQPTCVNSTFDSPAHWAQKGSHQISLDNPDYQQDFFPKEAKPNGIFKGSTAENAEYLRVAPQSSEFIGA

As for `C=CC(=O)N[C@@H]1CCC[C@H](n2c(NC(=O)c3cccc(C(F)(F)F)c3)nc3cccc(C)c32)C1` (racemic) [Example 7, cis-N-(1-(3-acrylamidocyclohexyl)-7-methyl-1H-benzo[d]imidazol-2-yl)-3-(trifluoromethyl)benzamide], the IC50 on EGFR(L858R/T790M) [1] (setting [3]) was 0.002 µM; on EGFR(L858R/T790M) [1] (setting [4]) it was 0.039 µM; on EGFR(L858R/T790M) [2], 0.037 µM; at EGFR (WT), greater than 10 µM; on EGFR (L858R), 0.28 µM.

For the compound `C=CC(=O)Nc1cccc(-n2c(NC(=O)c3cccc(C(F)(F)F)c3)nc3cc(COC)ccc32)c1` [Example 5-1, N-[5-(methoxymethyl)-1-[3-(prop-2-enamido)phenyl]-1H-1,3-benzodiazol-2-yl]-3-(trifluoromethyl)benzamide], the IC50 was less than 0.001 µM on EGFR(L858R/T790M) [1] (setting [3]); 0.022 µM at EGFR(L858R/T790M) [1] (setting [4]); 0.02 µM on EGFR(L858R/T790M) [2]; greater than 10 µM on EGFR (WT); 0.86 µM against EGFR (L858R).

With `C=CC(=O)Nc1cccc(-n2c(NC(=O)c3ccc(C)cc3)nc3cc(C)ccc32)c1` [Example 2-3, 4-methyl-N-{5-methyl-1-[3-(prop-2-enamido)phenyl]-1H-1,3-benzodiazol-2-yl}benzamide], the IC50 is 0.034 µM against EGFR(L858R/T790M) [1] (setting [3]); 0.39 µM at EGFR(L858R/T790M) [1] (setting [4]); 0.98 µM against EGFR(L858R/T790M) [2]; greater than 10 µM against EGFR (WT); 0.77 µM against EGFR (L858R).

As to `C=CC(=O)N(C)c1cccc(-n2c(NC(=O)c3cccc(C(F)(F)F)c3)nc3cc(C)ccc32)c1` [Example 2-10, N-{5-methyl-1-[3-(N-methylprop-2-enamido)phenyl]-1H-1,3-benzodiazol-2-yl}-3-(trifluoromethyl)benzamide], the IC50 against EGFR(L858R/T790M) [1] (setting [3]) was 0.003 µM; on EGFR(L858R/T790M) [1] (setting [4]), 0.085 µM; against EGFR(L858R/T790M) [2] it was 0.11 µM; against EGFR (WT), greater than 8 µM; against EGFR (L858R), 0.66 µM.

Consider `C=CC(=O)Nc1cccc(-n2c(NC(=O)c3ccc4ccccc4c3)nc3cc(C)ccc32)c1` [Example 2-8, N-{5-methyl-1-[3-(prop-2-enamido)phenyl]-1H-1,3-benzodiazol-2-yl}naphthalene-2-carboxamide], for which the IC50 on EGFR(L858R/T790M) [1] (setting [3]) was 0.013 µM; on EGFR(L858R/T790M) [1] (setting [4]) it was 0.18 µM; at EGFR(L858R/T790M) [2], 0.38 µM; against EGFR (WT) it was greater than 10 µM; against EGFR (L858R), 0.64 µM.

In the case of `C=CC(=O)N[C@H]1CCCC(n2c(NC(=O)c3cccc(C(F)(F)F)c3)nc3cccc(C)c32)C1` (mixture of isomers) [Example 6, trans-N-(1-(3-acrylamidocyclohexyl)-7-methyl-1H-benzo[d]imidazol-2-yl)-3-(trifluoromethyl)benzamide], the IC50 on EGFR(L858R/T790M) [1] (setting [3]) was 0.009 µM; at EGFR(L858R/T790M) [1] (setting [4]) it was 0.18 µM; on EGFR(L858R/T790M) [2], 0.14 µM; on EGFR (WT), greater than 10 µM; on EGFR (L858R), 0.69 µM.

With `C=CC(=O)Nc1cccc(-n2c(NC(=O)c3ccc(F)cc3)nc3cc(C)ccc32)c1` [Example 1, N-(1-(3-acrylamidophenyl)-5-methyl-1H-benzo[d]imidazol-2-yl)-4-fluorobenzamide], the IC50 at EGFR(L858R/T790M) [1] (setting [3]) is 0.002 µM; at EGFR(L858R/T790M) [1] (setting [4]) it was 0.016 µM; against EGFR(L858R/T790M) [2], 0.037 µM; at EGFR (WT), greater than 10 µM; at EGFR (L858R), 0.053 µM.

As for `C=CC(=O)Nc1cccc(-n2c(NC(=O)c3cccc(Oc4ccccc4)c3)nc3cc(C)ccc32)c1` [Example 2-6, N-{5-methyl-1-[3-(prop-2-enamido)phenyl]-1H-1,3-benzodiazol-2-yl}-3-phenoxybenzamide], the IC50 against EGFR(L858R/T790M) [1] (setting [3]) is less than 0.001 µM; on EGFR(L858R/T790M) [1] (setting [4]) it was 0.021 µM; at EGFR(L858R/T790M) [2], 0.062 µM; against EGFR (WT) it was greater than 10 µM; on EGFR (L858R), 0.27 µM.

For `C=CC(=O)Nc1cccc(-n2c(NC(=O)c3cccc(C(F)(F)F)c3)nc3cc(CN4CCCC4)ccc32)c1` [Example 5-2, N-[1-[3-(prop-2-enamido)phenyl]-5-(pyrrolidin-1-ylmethyl)-1H-1,3-benzodiazol-2-yl]-3-(trifluoromethyl)benzamide], the IC50 is 0.007 µM against EGFR(L858R/T790M) [1] (setting [3]); 0.039 µM at EGFR(L858R/T790M) [1] (setting [4]); 0.013 µM against EGFR(L858R/T790M) [2]; greater than 10 µM at EGFR (WT); 0.18 µM against EGFR (L858R).
